These results are taken from patent US11110092B2, “Methods of treating hematologic cancers” (BIOCRYST PHARMACEUTICALS, INC, priority 2007, dated 2021).

For data set [1], the system named is primary leukemic cells from patients with CLL. Also noted: cell death: dose or concentration left out as unconfirmed.
Experimental: The present in vitro study was carried out in primary leukemic lymphocytes from 43 patients diagnosed with CLL according to the World Health Organization classification. Informed consent was obtained from each patient.
Peripheral blood mononuclear cells (PBMCs) cells were isolated by Ficoll/Hypaque sedimentation (Seromed, Berlin, Germany). Cells were either used directly or cryopreserved in liquid nitrogen in the presence of 10% dimethyl sulfoxide and 90% heat-inactivated fetal bovine serum (FBS, Gibco Paisley, Scotland, UK).
Cells were incubated for different time points with forodesine at doses ranging from 1 to 12 μM in the presence or absence of 10-20-30 μM of deoxyguanosine (dGuo). When indicated, cells were pre-incubated for 1 hour with the pan-caspase inhibitor z-VAD.fmk (benzyloxy-carbonyl-Val-Ala-Asp-fluoro-methylketone; Bachem, Bubendorf, Switzerland) at 80 the caspase-8 inhibitor z-IETD.fmk at 50 μM (Z-Ile-Glu(OMe)Thr-DL-Asp (OMe)-fluoromethylketone, Bachem), 2′-deoxycytidine (5-10-20 μM, Sigma), N-acetyl-L-cysteine (NAC, 25 mM), Tiron (5 mM, 4,5-Dihydroxy-1,3-Benzene-disulfonic acid, Sigma) or GSH (2 mM; Sigma). […] Cell viability and apoptosis induction was analyzed by changes in cell complexity by means of FSC/SSC, quantification of phosphatidyl serine (PS) exposure by double staining with Annexin-V conjugated to fluorescein isothiocyanate (FITC) and propidium iodide (PI) (BenderMedsystems, Vienna, Austria). For the analysis of apoptosis in the CD3^+ and CD19^− populations, PBMCs were labeled simultaneously with anti-CD3-FITC (Immunotech, Marseille, France), anti-CD19-PE (Becton Dickinson) and Annexin-V-APC. Cell viability and cytotoxicity were plotted as percentage with respect to control cells. Loss of mitochondrial transmembrane potential (ΔΨm) were evaluated by staining cells with 20 nM of DiOC6 (3,3-diexyloxacarbocyanine iodide, Molecular Probes) and reactive oxygen species (ROS) production was determined by staining cells with 2 μM dihydroethidine (DHE; Molecular Probes) and flow cytometry analysis. […] In brief, cells were washed once in PBS and fixed in paraformaldehyde 4%, permeabilized with 0.1% saponin and 0.5% bovine serum albumin (BSA). […] After several washes in permeabilization buffer, cells were incubated with a secondary goat anti-mouse FITC (DAKO) or goat anti-rabbit FITC (Supertechs) antibody and washed again with permeabilization buffer. Ten thousand stained cells per sample were then analyzed by flow cytometry.
Data set [2] deals with intracellular dGTP in CLL primary cells. Description: Measurement of intracellular dGTP levels (DNA polymerase assay). It is filed as cell-based, human. As to conditions: forodesine 2 μM and dGuo 10 μM; 26 CLL patients; 18 hours. How it is done:
15×10^6 of CLL primary cells were incubated with or without forodesine (2 μM) and dGuo (10 μM) or fludarabine (1 μg/ml) for 18 hours and the nucleotides were extracted with 60% methanol and intracellular dGTP levels were quantified by DNA polymerase assay as modified by Sherman and Fyfe (Sherman et al., Anal Biochem, 180(2), 222-226 (1989)). Data were expressed in fold induction of intracellular dGTP levels respect of control cells. In parallel, cell viability at 24 and 48 hours were also evaluated.

In data set [3] the test system is dCK phosphorylated at Ser-74 in CLL cells. Description: Western blot of dCK phosphorylation at Ser-74. In kind it is cell-based, human. A general note: A western blot detects proteins with antibodies after separation by electrophoresis.
The subject of data set [4] is mitochondrial transmembrane potential in CLL cells. Put plainly: Loss of mitochondrial transmembrane potential (DiOC6 staining, flow cytometry). It is filed as cell-based, human. The note with it: for effect of pre-incubation on Δψm loss induced by forodesine: ROS scavenger pre-incubation. (Flow cytometry measures light scatter and fluorescence of single cells or particles in a stream.)
Experimental: (§1) Cells were incubated for different time points with forodesine at doses ranging from 1 to 12 μM in the presence or absence of 10-20-30 μM of deoxyguanosine (dGuo). When indicated, cells were pre-incubated for 1 hour with the pan-caspase inhibitor z-VAD.fmk (benzyloxy-carbonyl-Val-Ala-Asp-fluoro-methylketone; Bachem, Bubendorf, Switzerland) at 80 the caspase-8 inhibitor z-IETD.fmk at 50 μM (Z-Ile-Glu(OMe)Thr-DL-Asp (OMe)-fluoromethylketone, Bachem), 2′-deoxycytidine (5-10-20 μM, Sigma), N-acetyl-L-cysteine (NAC, 25 mM), Tiron (5 mM, 4,5-Dihydroxy-1,3-Benzene-disulfonic acid, Sigma) or GSH (2 mM; Sigma). […] Loss of mitochondrial transmembrane potential (ΔΨm) were evaluated by staining cells with 20 nM of DiOC6 (3,3-diexyloxacarbocyanine iodide, Molecular Probes) and reactive oxygen species (ROS) production was determined by staining cells with 2 μM dihydroethidine (DHE; Molecular Probes) and flow cytometry analysis.

Data set [5] has as its system ROS in CLL primary cells. Description: Reactive oxygen species production (dihydroethidine staining, flow cytometry). In kind it is cell-based, human. The note with it: for effect of pre-incubation on ROS production induced by forodesine: ROS scavenger pre-incubation.
Experimental: as §1
The test system of data set [6] is caspase-9, -8 and -3 in CLL cells. Put plainly: Caspase activation by immunoblotting. It is filed as cell-based, human. The note with it: as early as 10 hours of forodesine treatment.
The subject of data set [7] is BID in CLL cells. Description: BID processing by immunoblotting. The note with it: forodesine treatment. It is filed as cell-based, human.
For data set [8], the system named is XIAP and survivin in CLL cells. Description: XIAP and survivin levels by immunoblotting. It is filed as cell-based, human. The note with it: forodesine treatment.
Data set [9] concerns MCL-1 in CLL cells. Put plainly: MCL-1 protein levels by immunoblotting. In kind it is cell-based, human. The note with it: forodesine treatment.
In data set [10] the test system is BCL-2 in CLL cells. Description: BCL-2 protein levels by immunoblotting. In kind it is cell-based, human. The note with it: forodesine treatment.
The test system of data set [11] is BIM in CLL cells. Put plainly: BIM protein levels by immunoblotting. It is filed as cell-based, human. As to conditions: forodesine treatment.
For data set [12], the system named is BAX and BAK in CLL cells. Put plainly: BAX and BAK activation by flow cytometry (conformational change). In kind it is cell-based, human. The note with it: incubation of CLL cells with forodesine.
For data set [13], the system named is p53 in CLL cells. Put plainly: p53 protein stabilization by immunoblotting. It is filed as cell-based, human. The note with it: CLL cases with no 17p deletion.
For data set [14], the system named is p73 in CLL cells. Description: p73 mRNA (real time RT-PCR) and TAp73 protein levels. As to conditions: all CLL cases analyzed. It is filed as cell-based, human. Here is the method:
Cells were lysed for 15 min in RIPA buffer supplemented with protease and phosphatase inhibitors (leupeptine 10 μg/ml, apoprotinine 10 μg/ml, 1 μM PMSF, 1 μM sodium ortovanadate, 1 μM NaF, 2 μM sodium pyrophosphate decahydrate (Sigma)). Total cellular proteins were separated by SDS-PAGE under reducing conditions and transferred to Immobilon-P (Millipore) membranes. […] Equal protein loading was confirmed with β-actin or α-tubulin expression and relative protein quantification was done with Image Gauge Fujifilm software (Fuji). […] The expression levels of p73 and Mcl-1 were determined in an ABI Prism 7900HT Sequence Detection System (Applied Biosystems, Foster City, Calif.) using pre-designed Assay-on-demand (Applied Biosystems). The relative expression of each gene was quantified by the comparative cycle threshold (Ct) method (ΔΔCt), using GUS as an endogenous control. mRNA expression levels were given as arbitrary quantitative PCR units, taking as a calibrator the control sample (untreated) of each case.

In data set [15] the test system is FOXO1 and FOXO3a in CLL cells. Description: FOXO1 and FOXO3a levels by immunoblotting. In kind it is cell-based, human. As to conditions: CLL cells treated with forodesine.
The conditions of data set [16]: Gandhi et al. 2005; Korycka et al. 2007; cited from earlier work.
Where [17] appears, read: caspase-8 inhibitor pre-incubation.

Where two headings read alike, the source gives them in different places. Peptide text beside a SMILES is read from it. * marks the point of attachment. Cbz = O=C(OCc1ccccc1)*; CH2F = FC*

In the case of `Nc1nc(F)nc2c1ncn2[C@@H]1O[C@H](CO)[C@@H](O)[C@@H]1O` [Fludarabine], in data set [1], the mean cytotoxicity was found to be 25.1±13% and the “mean cytotoxicity as single agents” value came to 50.6±11%.
With `COC(=O)C[C@H](NC(=O)[C@H](C)NC(=O)[C@@H](NC(=O)OCc1ccccc1)C(C)C)C(=O)CF` [z-VAD.fmk, benzyloxy-carbonyl-Val-Ala-Asp-fluoro-methylketone] (Cbz-Val-Ala-Asp(OMe)-CH2F), the “effect on phosphatidylserine exposure after forodesine treatment” value in data set [1] (broad range caspase inhibitor pre-incubation, forodesine 24 hours) is given as “partially reduced phospatidylserine exposure”.
On to Rituximab, for which the cell death result in data set [1] (single agent or combined with forodesine, 24 hours) was “low”.
Consider `Cl.O=c1[nH]cnc2c([C@@H]3N[C@H](CO)[C@@H](O)[C@H]3O)c[nH]c12` [Forodesine], for which the “increase in intracellular dGTP levels with respect to control basal levels” value in [2] is “up to 96 times fold increase”. In [3] (western blot in CLL cells), the “phosphorylated form (at Ser-74) of dCK” value is “increase in the phosphorylated form”. Further, the “mitochondrial transmembrane potential (Δψm)” value in data set [4] (early times, evident after 10 hours) is “induced loss of mitochondrial transmembrane potential”. Also, the ROS production entry in [5] (CLL primary cells, evident after 10 hours) is reported as “induced the production of ROS”. The “activation of caspase-9, -8 and -3 (processing of pro-inactive form)” value in [6] was “dose- and time-dependent activation”. Besides, the BID protein result in data set [7] is on record as “induced a decreased of BH3-only protein BID”. Besides, in data set [8], the “XIAP and survivin levels” value was “decrease of the inhibitors of apoptosis XIAP and survivin”. Moreover, in data set [9], the MCL-1 protein levels entry was “considerably decreased”. Besides, in data set [10], the BCL-2 protein levels entry is recorded as “not affected”. Further, the BIM protein levels entry in data set [11] is recorded as “induced an increase”. The “activation of BAX and BAK” value in data set [12] was “induced the conformational change of BAX and BAK”. Moreover, the p53 protein result in data set [13] is reported as “induce stabilization of p53 protein”. Also, the “p73 mRNA and TAp73 protein levels” value in [14] is reported as “clear up-regulation”. In addition, the “FOXO1 and FOXO3a levels” value in data set [15] is “induced an increase in both, FOXO1 and FOXO3a”. In [1], the “cytotoxic effect of agent alone” value is on record as “did not induce a cytotoxic effect” and the “share of cases with cytotoxic effect between 40-60%” value was 41.8%. In data set [1] (11 CLL patients with 17p deletions, Forodesine 2 μM+dGuo 20 μM, 48 hours), the “response of p53 deleted CLL cases” value is “high response”. In data set [1] (12 of 32 CLL patient samples), the “response in samples with no or low in vitro response to bendamustine 25 μM and/or fludarabine 1 μg/ml” value is “high response”. In addition, the mean cytoxicity in [1] (CLL cells with high levels of ZAP-70, 22 CLL patients) is 57.9%±12. Moreover, in data set [1] (CLL cells with low levels of ZAP-70, 17 CLL patients), the “mean cytoxicity with respect to control” value is on record as 58.1%±11. For the same compound, in data set [1] (Forodesine 2 μM and dGuo 10-20 μM), the “response of CLL cells with low or no sensitivity to Bendamustine or Fludarabine” value was “good response”. In addition, the “cell death (Annexin-V+ staining)” value in data set [1] (forodesine 2-5-10 μM with dGuo 10-20 or 30 μM, 48 hours) is listed as “induced cell death”. In addition, the “response in CLL cells with 13q deletion, 11q deletion and 17p deletion” value in data set [1] (forodesine-induced cytotoxicity) is “good response”. For the same compound, in data set [1] (n=10, 48 hours), the “cell death, CLL fresh samples” value is reported as 56.6%±6.4. The “cell death, cryopreserved primary CLL samples” value in data set [1] (n=32, 48 hours) was 58.3%±11. In data set [16], the toxicity profile result is “low toxicity profile”.
Consider `O=S(=O)(O)c1cc(O)c(O)c(S(=O)(=O)O)c1` [Tiron, 4,5-Dihydroxy-1,3-Benzene-disulfonic acid], for which the “effect of pre-incubation on Δψm loss induced by forodesine” value in data set [4] is “reduced Δψm loss”. For the same compound, the “effect of pre-incubation on ROS production induced by forodesine” value in data set [5] is recorded as “practically reverted ROS production”.
As for `Cl.Cn1c(CCCC(=O)O)nc2cc(N(CCCl)CCCl)ccc21` [Bendamustine], the “phosphorylated form (at Ser-74) of dCK” value in data set [3] is “not exerted”.
Consider `CCOC(=O)CNC(=O)[C@H](CS)NC(=O)CC[C@H](N)C(=O)O` [GSH, glutathione-reduced ethyl ester], for which, in data set [4], the “effect of pre-incubation on Δψm loss induced by forodesine” value was “reduced Δψm loss”. Also, the “effect of pre-incubation on ROS production induced by forodesine” value in data set [5] is “moderated”.
As to `CC[C@H](C)[C@H](NC(=O)OCc1ccccc1)C(=O)N[C@@H](CCC(=O)OC)C(=O)N[C@H](C(=O)N[C@@H](CC(=O)OC)C(=O)CF)[C@@H](C)O` (racemic) [z-IETD.fmk, Z-Ile-Glu(OMe)Thr-DL-Asp (OMe)-fluoromethylketone], the “reversion of ΔΨm loss induced by forodesine” value in [4] (setting [17]) is “more pronounced”. In addition, the “effect on forodesine apoptosis induction (Annexin V staining)” value in [1] (setting [17]) was “partially blocked”.
As for `Nc1nc2c(ncn2[C@H]2C[C@H](O)[C@@H](CO)O2)c(=O)[nH]1` [dGuo, deoxyguanosine], in data set [1], the “cytotoxic effect of agent alone” value is listed as “did not induce a cytotoxic effect”.
As to `CC(=O)N[C@@H](CS)C(=O)O` [NAC, N-acetyl-L-cysteine], the “effect of pre-incubation on Δψm loss induced by forodesine” value in [4] was “reduced Δψm loss”. In data set [5], the “effect of pre-incubation on ROS production induced by forodesine” value is listed as “practically reverted ROS production”.
Regarding `Nc1ccn([C@H]2C[C@H](O)[C@@H](CO)O2)c(=O)n1` [deoxycytidine, 2′-deoxycytidine], the “effect of pre-incubation on forodesine-induced cell death” value in data set [1] (deoxycytidine 5-10 μM) was “inhibited forodesine-induced cell death”. Moreover, in data set [1] (deoxycytidine pre-incubation), the “effect on cell death induced by bendamustine” value was “not reverted” and the “effect on loss of cell viability induced by fludarabine” value is “reverted the loss of cell viability”.
